{
  "source": "patent US20230226065A1",
  "about": "“ANTI-INFLAMMATORY COMPOSITIONS, METHODS AND USES THEREOF” (COMVITA LIMITED, priority 2020, published 2023)",
  "key": {"[1]": {"tested_on": "inactive MMP-9 (pro-MMP-9)", "assay": "Gelatin gel zymography, inactive MMP-9 band", "assay_type": "biochemical", "conditions": "inactive MMP-9 (~47 kDa band); densitometry vs no inhibitor; n=5", "method": "Novex™ 10% Zymogram Plus (Gelatin) Protein Gels (15 wells) were purchased from Thermo Fisher Scientific Inc. (Auckland, New Zealand). All chemicals required for the zymogram analysis were also purchased from Thermo Fisher, these include Novex™ Sharp Pre-stained Protein Standard, Novex Tris-Glycine SDS sample buffer, Novex Tris-Glycine SDS running buffer, Novex Zymogram renaturing buffer and Novex Zymogram developing buffer. […] Gelatin gel zymography was performed as an independent technique to confirm the inhibition of MMP-9 from 3,6,7-trimethyllumazine. This technique uses a non-reducing SDS-PAGE (sodium dodecyl sulfate polyacrylamide gel electrophoresis) gel embedded with gelatin. Proteins are migrated and separated during electrophoresis. The SDS is removed after electrophoresis and the gel is then incubated with essential cofactors required for enzymatic activity. The embedded gelatin can be digested by MMP-9, resulting in clear bands on a dark blue background after staining with Coomassie blue dyes. The gelatinase activity is represented by band densitometry, which can be assessed with image analysis software. […]\nAfter incubation, the gelatin gel was rinsed with water for three times (5 min each) under gentle agitation. […] MMP-9 activities were analysed using densitometry on ImageJ Version 1.52a. […]"}, "recombinant MMP-9 enzyme": {"biological_target": "T1, recombinant MMP-9 enzyme (Homo sapiens, UniProt P14780)", "T1 construct": "purchased Abcam ab139449", "T1 sequence (P14780 94-707)": "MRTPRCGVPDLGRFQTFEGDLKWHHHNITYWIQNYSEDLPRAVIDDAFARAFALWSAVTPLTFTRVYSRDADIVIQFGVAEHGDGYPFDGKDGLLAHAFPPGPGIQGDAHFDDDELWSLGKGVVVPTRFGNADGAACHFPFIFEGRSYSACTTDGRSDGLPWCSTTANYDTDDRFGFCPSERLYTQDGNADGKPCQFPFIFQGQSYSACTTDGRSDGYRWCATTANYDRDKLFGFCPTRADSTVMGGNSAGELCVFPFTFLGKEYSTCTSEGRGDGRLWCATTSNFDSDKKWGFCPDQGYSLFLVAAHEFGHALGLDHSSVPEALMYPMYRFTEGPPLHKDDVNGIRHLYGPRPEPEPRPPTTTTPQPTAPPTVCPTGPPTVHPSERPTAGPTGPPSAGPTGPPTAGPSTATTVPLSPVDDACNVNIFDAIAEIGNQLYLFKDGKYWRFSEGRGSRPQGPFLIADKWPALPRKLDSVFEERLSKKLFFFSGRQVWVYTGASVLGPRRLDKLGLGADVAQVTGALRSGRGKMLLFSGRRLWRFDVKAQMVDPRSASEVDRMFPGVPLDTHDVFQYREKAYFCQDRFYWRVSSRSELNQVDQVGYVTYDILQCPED", "assay": "MMP-9 inhibitor screening assay (fluorometric)", "assay_type": "biochemical", "conditions": "40 μg/ml; no significant difference to NNGH control", "method": "The MMP-9 inhibitor screening assay (fluorometric) kits were purchased from Abcam (Melbourne, Australia). The fluorometric kit contains the recombinant MMP-9 enzyme, MMP inhibitor NNGH (N-isobutyl-N-[4-methoxyphenylsulfonyl]glycyl hydroxamic acid), MMP fluorogenic substrate solubilised in DMSO, the fluorometric assay buffer and 96-well clear microplate.\nInhibitory activity on MMP-9 was assessed using the commercial MMP-9 inhibitor screening assay kit. MMP-9 activity was expressed as a change in fluorescence intensity measured using SpectraMax iD3 multi-mode microplate reader (Molecular Devices, San Jose, USA).\nThe assay employs a FRET-tagged (fluorescence resonance energy transfer) substrate, which can be hydrolysed by MMP-9 at a specific site (Abcam, 2018). The cleavage of the FRET substrate releases the quenched fluorescent Mca (7-methoxycoumarin-4-yl)-acetyl group (Abcam, 2018). The kit employs a quenched fluorogenic substrate Mca-Pro-Leu-Gly-Leu-Dpa-Ala-Arg-NH2, where the Mca fluorescence is quenched by Dpa until cleavage by MMPs. The amount of fluorescent product yielded by MMP-9 can be detected fluorometrically and it is proportional to the enzyme activity. Fluorescence were measured at ex320 nm-em395 nm to minimise fluorescence interference from 3,6,7-trimethyllumazine at ex330 nm-em470 nm. […]"}},
  "data": [
    {"smiles": "Cc1nc2[nH]c(=O)n(C)c(=O)c2nc1C", "note": "[3,6,7-trimethyllumazine]", "values": [
      {"measurement": "percentage inhibition of gelatinase activity", "setting": "[1]", "result": 17, "unit": "%"},
      {"measurement": "inhibition of MMP-9 activity", "setting": "recombinant MMP-9 enzyme", "result": "almost completely inhibited"}
    ]}
  ]
}
